Values joined by “and” are separate entries in the source; they are usually repeats but may differ in a detail not shown here. Identical values can stand only once.

The subject of data set [1] is Phosphatidylserine (C2) Binding Site. The data set can be described thus: 3H-DCPLA-ME binding to rat brain slices with C1 and C2 competitors (film-autoradiography). Conditions: rat brain slices. As for the experimental part: To determine the binding site of DCPLA-ME, ^3H-DCPLA-ME was incubated with rat brain slices in the absence and presence of known C1 and C2 competitors. More specifically, rat brain sections were fixed with formaldehyde, sliced, and incubated with (1)^3H-DCPLA-ME alone; (2)^3H-DCPLA-ME with DCPLA; (3)^3H-DCPLA-ME with Phorbol ester; or (4)^3H-DCPLA-ME and Bryostatin 1. After incubation, the slices were washed with a buffer made of 130 mM NaCl, 5 mM MgCl, 5 mM KCl, 1 mM EGTA, and 0.1% bovine serum albumin in 10 mM HEPES-NaOH, pH 7.4, dried, and analyzed with film-autoradiography.

For data set [2], the system named is cultured primary rat hippocampal neurons. Briefly: Neuroprotection against ASPD induced toxicity, MTT assay, primary neurons. In kind it is cell-based. Conditions: 50 nM ASPD, 20 hr, activator 0.27 nM. How it is done: (§1) Viability of cells was measured by MTT assay. MTT (i.e., 3-(4,5-dimethylthiazol-2-yl)-2,5-diphenyltetrazolium bromide) is a tetrazolium salt that is cleaved to formazan by the succinate dehydrogenase, which is only active in viable cells. After solubilization of the formazan, the amount of dye can be quantified with a microplate reader at 570 nm along with a reference of 630 nm. For the MTT assay, 5×10^4 primary rat hippocampal neurons from 18-day-old embryonic Sprague-Dawley rat brains or SH-SY5Y cells were plated on each well of 24-well plates coated with poly-D-lysine. After treatment, the cells were washed with 1× PBS and were incubated with 200 μl of 1 mg/ml MTT solution (Sigma, USA) at 37° C. for 2 hr. Then the MTT-solution was removed and the cells were lysed with 200 μl isopropanol containing 0.04 M HCl and […] for 10 min. Finally, the reading was taken at 570 nm and 630 nm. All the samples were done in triplicate and the data were represented as the percentage of control.
Bryostatin 1, DCPLA, and DCPLA-ME were tested against ASPD-induced cytotoxicity to determine their neuroprotective efficacy.
Background: Formazan colour is commonly taken as a measure of viable cells.

Data set [3] deals with primary human cortical neurons. Briefly: 40 day culture of human primary cortical neurons: survival, synapses, branching. The format is cell-based. Conditions: 0.27 nM. How it is done: To examine the effects of PKC-ε activation, cultured human cortical neurons in serum-free artificial medium were exposed to 100 nM DCPLA-ME added every three days, along with 50% medium replacement, for 40 days. More specifically, human primary cortical neurons were grown in Neuronal Medium (ScienCell Cat No#1521) containing neuronal growth supplement (NGS) (Sciencell Cat No#1562).
Cells were plated on poly-l-lysine (0.001%) coated plates at a density of >10000 cells/cm2. Half of the media was replaced by new media every 3 days. DCPLA-ME was dissolved in 100% ethanol and added at 100 nM final concentration. Fresh DCPLA-ME (100 nM) was added every 3 days during media change. The experiments were continued for 40 days.
Human primary neurons (ScienCell Research Laboratories, USA) were thawed and plated on poly-L-lysine coated plates at a density of 10,000 cells per cm^2 and were maintained in neuronal medium (DMEM+high glucose+neuronal growth supplement, ScienCell Research Laboratories, USA) following the recommended method. Primary human neurons were then treated with either DCPLA-ME (100 nM) or bryostatin 1 (0.27 nM) for 40 days. Fresh drug was added every third day with 50% media change.

Data set [4] relates to rat primary hippocampal neurons. The data set can be described thus: Neurotoxic effect of Aβ1-42 oligomers, MTT viability assay. The format is cell-based. Conditions: 20 hr. As for the experimental part:
Amylospheroids (ASPDs) and Aβ monomers were prepared following Hoshi, M., et al. (2003) Proc Natl Acad Sci USA 100, 6370-6375, and Noguchi, A., et al. (2009) J Biol Chem 284, 32895-32905. Briefly, Aβ1-42 was dissolved in 1,1,1,3,3,3-hexafluoro-2-propanol and incubated overnight at 4° C. and then 3 hr at 37° C. The dissolved Aβ1-42 was then lyophilized in 1.5 ml polypropylene centrifuge tubes at 40 nmol/tube concentration. For preparing the ASPDs, the lyophilized Aβ was dissolved in phosphate buffered saline (PBS) without Ca^2+ or Mg^2+ at less than 50 μM concentration and rotated for 14 hr at 4° C. After incubation, the Aβ solution was purified using a 100 kDa molecular mass cutoff filter (Amicon Ultra, Millipore) and the high-molecular weight fraction was saved to obtain the most toxic ASPDs. Aβ derived diffusible ligands (ADDLs) were produced as previously described. See Lambert, M. P et al., Proc. Natl. Acad. Sci. USA, 1998, 95: 6448-6453. Briefly, Aβ1-42 was solubilized at 5 mM in dimethyl sulfoxide, diluted to 100 μM in F12k medium and was incubated at 4° C. for 24 hr. The solution was centrifuged at 14000×g for 10 min at 4° C. and the supernatant was used as the ADDLs.
as §1
To assess the neurotoxic effect of different sized oligomers, rat primary hippocampal neurons were treated with variable concentrations of these Aβ1-42 species for 20 hr. Viability of the treated cells was compared to untreated cells using the MTT assay described above.

The test system of data set [5] is PKC-ε. Briefly: PKC-ε translocation to membrane in SH-SY5Y neuroblastoma cells (Western Blot). The format is cell-based, human. Conditions: 1 μM (20-fold higher than ASPD), relative to control. As for the experimental part: (§2) Cells were harvested in homogenizing buffer containing 10 mM Tris-Cl (pH 7.4), 1 mM PMSF (phenylmethylsulfonyl fluoride), 1 mM EGTA, 1 mM EDTA, 50 mM NaF, and 20 μM leupeptin, and were lysed by sonication. The homogenate was centrifuged at 100,000×g for 15 min at 4° C. to obtain the cytosolic fraction (supernatant) and membrane (pellet). The pellet was resuspended in the homogenizing buffer by sonication. For whole cell protein isolation from primary neurons, the homogenizing buffer contained 1% Triton X-100. Protein concentration was measured using the Coomassie Plus (Bradford) Protein Assay kit (Pierce, USA). Following quantification, 20 μg of protein from each sample was subjected to SDS-PAGE analysis in a 4-20% gradient Tris-Glycine gel (Invitrogen, USA). The separated protein was then transferred to a nitrocellulose membrane. The membrane was blocked with 5% BSA at room temperature for 15 min and was incubated with primary antibody overnight at 4° C. After the incubation, it was washed three times with TBS-T (Tris Buffered Saline-Tween 20) and further incubated with alkaline phosphatase conjugated secondary antibody (Jackson Immunoresearch Laboratories, USA) at 1:10000 dilution for 45 min. The membrane was finally washed three times with TBS-T and developed using the 1-step NBT-BCIP substrate (Pierce, USA). The blot was imaged in an ImageQuant RT-ECL (GE Life Sciences, Piscataway, N.J.) and densitometric quantification was performed using IMAL software (Blanchette Rockefeller Neurosciences Institute, Morgantown, W. Va.). For translocation assays, PKC activation was represented as the percentage of total protein in the membrane (membrane/cytosol+membrane).
For orientation: A western blot detects proteins with antibodies after separation by electrophoresis.

In data set [6] the test system is synaptophysin. Briefly: Synaptophysin expression in primary hippocampal neurons (immunofluorescence, Western Blot). The format is cell-based, rat. Conditions: 1 μM, 20 hr. As for the experimental part: (§3) Cells were grown in two chambered slides (Nunc, USA) at low density. For immunofluorescence staining, the cells were washed with PBS (pH 7.4) and fixed with 4% paraformaldehyde for 4 min. Following fixation, the cells were blocked and permeabilized with 5% serum and 0.3% Triton X-100 in 1×PBS for 30 min. Cells were washed three times with 1×PBS and incubated with primary antibodies for 1 hr at 1:100 dilution. After the incubation, the slides were again washed three times in 1×PBS and were incubated with the FITC anti-mouse IgG and Rhodamine anti-rabbit IgG for 1 hr at 1:400 dilution. The cells were further washed and stained with DAPI (4′,6-diamidino-2′-phenylindole, dihydrochloride) (Thermo Scientific, USA) to stain the nucleus. Finally, the slides were washed and mounted in Pro Long Gold antifade mounting solution (Invitrogen, USA) and were viewed under a LSM 710 Meta confocal microscope (Zeiss) at 350 nm, 490 nm, and 540 nm excitation and 470 nm, 525 nm, and 625 nm emission for DAPI, FITC, and Rhodamine respectively. Six individual fields at 63× oil lens magnification were analyzed for the mean fluorescence intensity (MFI) in each channel.
as §2
(§4) To estimate the synaptic damage caused by the ASPDs on primary hippocampal neurons, the expression of synaptophysin (a presynaptic marker) and PSD-95 (a postsynaptic marker) was measured by immunofluorescence staining. […] Following a 20 hr incubation period, the cells were stained for nucleus, PSD-95, and synaptophysin. Expression levels were calculated as the change of percentage in mean fluorescence intensity compared to untreated cells.
(§5) Primary neurons, treated and untreated, were immunostained for MAP-2, synaptophysin, and PSD-95 to determine the synaptic integrity. […] Following a 20 hr incubation period, the cells were stained for MAP-2, PSD-95, and synaptophysin as described above.

Data set [7] deals with PSD-95. The data set can be described thus: PSD-95 expression in primary hippocampal neurons (immunofluorescence). The format is cell-based, rat. Particulars: 1 μM, 20 hr. How it is done: as §3, §4, §5

As to `CCC/C=C/C=C/C(=O)O[C@H]1/C(=C/C(=O)OC)C[C@H]2C[C@H]([C@@H](C)O)OC(=O)C[C@H](O)C[C@@H]3C[C@H](OC(C)=O)C(C)(C)[C@](O)(C[C@@H]4C/C(=C/C(=O)OC)C[C@H](/C=C/C(C)(C)[C@]1(O)O2)O4)O3` [Bryostatin 1], in data set [1] (30 nM competitor), the “3H-DCPLA-ME binding, 30 nM competitor” value is given as 100%. The “3H-DCPLA-ME binding, 1 μM competitor” value in data set [1] (1 μM competitor) was 77%. Moreover, in data set [2], the “viability of ASPD-treated primary neurons” value is given as 73.23±3.6%. Moreover, the “co-localized staining of PSD-95 and synaptophysin in puncta” value in data set [3] (30 day old neurons) is recorded as “increased co-localized staining”. For the same compound, the “Immunostaining of PSD-95 and synaptophysin from Western blots” value in data set [3] (40 days) was “significantly higher”.

“ADDL: Aβ derived diffusible ligands prepared from Aβ1-42, containing 6.5 monomers on average”: the “Viability of primary neuron” value in data set [4] (50 nM) is 91.15 ± 1.44 % of control; in data set [4] (500 nM) it was 79.01 ± 11.32 % of control; in data set [4] (1000 nM (1 μM)) it was 50.98±3.8 % of control and 49.02 ± 7.26 % of control. The compound further showed a PKC-ε membrane translocation in data set [5] of 80.82±4.025%. Further, the “synaptophysin mean fluorescence intensity” value in data set [6] is recorded as 75.64±4.84 % of control.

Consider Aβ Monomer: monomeric Aβ1-42, for which the PKC-ε membrane translocation result in data set [5] is “did not affect translocation”. Also, the “synaptophysin mean fluorescence intensity” value in data set [6] is given as “did not change”. Besides, the PSD-95 expression result in data set [7] was “did not change”.

Source of the values: patent US9163032B2, “Esters of DCPLA and methods of treatment using the same” (Blanchette Rockefeller Neurosciences Institute, priority 2011, dated 2015).
